# Where a SMILES comes first, the peptide text is derived from it. The star is where a group is joined. Cbz = O=C(OCc1ccccc1)*
# Test system: PBRM1
# Experiment: Immunoblot of PBRM1 / CDC20 protein level in cells treated with tool compounds
# Assay type: cell-based
# Conditions: for CDC20 protein level / PBRM1 protein level: cell cycle block, 24 h, Figure S1J,K
# Method: Figure 3 Autophagy selectively degrades PBRM1 via the autophagic receptor p62 in a CDC20‐dependent manner. A) IB analysis of WCL lysates derived from WT or CDC20 knockdown 786‐O and 769‐P cells treated with NH4Cl (20 mM, 24 h) before harvesting. B) IB analysis of WCL lysates derived from 786‐O and 769‐P cells treated with NH4Cl (20 mM) for indicated hours. C) IB analysis of WCL lysates derived from 786‐O and 769‐P cells treated with chloroquine (CQ, 50 µM) for indicated hours. D) IB analysis of WCL lysates derived from 786‐O and 769‐P cells treated with glucose starvation (G.S.) for indicated hours. E) IB analysis of WCL lysates derived from 786‐O and 769‐P cells treated with serum starvation (S.S.) for indicated hours. F) IB analysis of WCL lysates derived from wild‐type (WT) or ATG5 knockdown 786‐O and 769‐P cells treated with serum starvation (S.S.) for indicated hours before harvesting. G) IB analysis of WCL and anti‐HA immunoprecipitates derived from 293T cells transfected with HA‐p62 and V5‐PBRM1. H) IB analysis of WCL and anti‐Flag immunoprecipitates derived from 293T cells transfected with Flag‐p62 and V5‐PBRM1. I) IB analysis of WCL lysates derived from shScr or p62 knockdown 786‐O and 769‐P cells using shRNA. J) IB analysis of WCL lysates derived from NC or p62 knockdown 786‐O cells using siRNA. NC, negative control. K,L) Immunoblotting analysis (K) and quantification (L) of cell lysates of WT and p62 knockdown 786‐O cells treated with cycloheximide (CHX, 20 µg ml^−1) at indicated time points. M) IB analysis of WCL and GST‐pull‐down products derived from 293T cells transfected with GST‐p62 and V5‐PBRM1. 24 h post transfection, cells were treated with serum starvation (S.S.) for 24 h before harvesting the cells. N) IB analysis of WCL and GST‐pull‐down products derived from 293T cells transfected with GST‐p62, HA‐CDC20 and V5‐PBRM1. O) IB analysis of WCL and GST‐pull‐down products derived from WT and CDC20 knockdown 293T cells transfected with GST‐p62 and V5‐PBRM1. P) Schematic representation of truncated constructs of p62 for mapping the interaction domain with PBRM1. Q) IB analysis of WCL and GST‐pull‐down products derived from 293T cells transfected with V5‐PBRM1 and indicated constructs of GST‐p62 plasmids. R) Schematic representation of truncated constructs of p62 for mapping the interaction domain with PBRM1. S) IB analysis of WCL and GST‐pull‐down products derived from 293T cells transfected with V5‐PBRM1 and indicated constructs of GST‐p62 plasmids.
# Cells were washed 3 times with ice‐cold phosphate‐buffered saline (PBS). The appropriate RIPA or IP buffer was added, which was mixed with protease and phosphatase inhibitors in advance. After centrifugation, the cell lysate supernatant was collected and checked using the BCA qualification system. The appropriate protein‐loading buffer was added to the protein lysates and denatured in a boiling water bath for 5 min. Each sample contained 30 µg protein, which was loaded onto 8% or 10% SDS‐PAGE gels and transferred to a polyvinylidene fluoride (PVDF) membrane. Then, the PVDF membranes were […] in fresh milk for 1 h at room temperature. Primary antibodies of the targets were added to the PVDF membranes and incubated overnight at 4 °C. The cells were rinsed 3 times with TBST buffer, followed by incubation with peroxidase‐conjugated antibodies at room temperature for 1 h. After washing, the PVDF membranes were analyzed and visualized using an ECL system (Bio‐Rad, Hercules, CA, USA).
# Supplementary Figure 1. PBRM1 fluctuates during cell cycle progression. (A) IB analysis of WCL and anti-HA immunoprecipitates derived from 293T cells transfected with HA-CDC20 and Flag-PBRM1. (B) Schematic representation of truncated constructs of CDC20 for mapping the interaction domain with PBRM1. (C) IB analysis of WCL and GST-pull-down products derived from 293T cells transfected with Flag-PBRM1 and indicated constructs of GST-CDC20. Vec, vector. […]
# [1] = 786-O and 769-P cells, NH4Cl 20 mM, chloroquine 50 µM, indicated hours
SMILES,"protein level of PBRM1 (renca and 786-O cells, MG132 10 μM 12 hours, Figure S5O)",CDC20 protein level (786-O and 769-P cells),PBRM1 protein level (786-O and 769-P cells),protein level of PBRM1 [1]
CC(C)C[C@@H](C=O)NC(=O)[C@H](CC(C)C)NC(=O)[C@H](CC(C)C)NC(=O)OCc1ccccc1 [MG132] (Cbz-Leu-Leu-Leu-aldehyde),enhance the protein level of PBRM1,–,–,–
COC(=O)Nc1nc2ccc(C(=O)c3cccs3)cc2[nH]1 [nocodazole],–,decreased,upregulated,–
CCN(CC)CCCC(C)Nc1ccnc2cc(Cl)ccc12 (stereo not shown) [chloroquine],–,–,–,upregulated
"Cl.N [NH4Cl, ammonium chloride]",–,–,–,increased
"CC(=O)O[C@H]1C(=O)[C@@]2(C)[C@H]([C@H](OC(=O)c3ccccc3)[C@]3(O)C[C@H](OC(=O)[C@H](O)[C@@H](NC(=O)c4ccccc4)c4ccccc4)C(C)=C1C3(C)C)[C@]1(OC(C)=O)CO[C@@H]1C[C@@H]2O [taxol, paclitaxel]",–,decreased,upregulated,–
